The compound `CC12CCC3C(CC(O)C4(O)CC=CCC34C)C1CC=C2Br` (stereo not drawn) returned a melting point of 170 to 175 °C.

Regarding `CCOC(=O)N(C)N(C)C(=S)Nc1cc(Cl)cc(Cl)c1`, the melting point was in the range of 147 to 149 °C. In turn, `O=C(OCCN1CCN(CCN2CCOCC2)CC1)c1ccc(O)cc1` had a melting point of 176 to 178 °C. The same measure for `CC(C)[C@H](OCc1ccccc1)[C@H]1[C@H]([N+](=O)[O-])[C@H](C(C)(C)C)N[C@@H]1C(=O)NCC(=O)O`: 119 to 120 °C; for `CCc1nc(-c2ccc(OCCCn3ccnc3C)cc2)no1`: 77 to 78.5 °C; for `Cc1csc(N2CCN(Cc3ccc(C(=O)O)cc3)C2=O)n1`: 222 to 224 °C. The same measure for `Cc1ccc2nc(OCC(=O)NCCCN(C)Cc3ccc(Cl)c(Cl)c3)oc2c1`: 62 to 66 °C. Take `CCCCc1oc2ccccc2c1-c1ncc(-c2ccc3cc(OC(Cc4ccccc4)C(=O)OC)ccc3c2)o1` (stereo not drawn): the melting point fell in the range of 122 to 124 °C. `COc1cc2ncnc(N3CCC(CN4C=CC=NS4(=O)=O)CC3)c2cc1OC` yielded a melting point of 173 to 174 °C.

In the case of `Brc1ccc2oc3ccc(Br)cc3c2c1`, the melting point was found to be 226 °C.

In turn, `CN(C)CCCNC(=O)c1ccc(-c2ccc3nnn(Cc4ccc5ncccc5c4)c3n2)cc1F` had a melting point of 148 to 150 °C. For `COc1cc(OCc2ccccn2)ccc1/C=C/c1cc(/C=C/c2cc3ccccc3o2)n[nH]1` the value was 199 to 201 °C; for `COC[C@@H]1CN(c2nsc3cc(O)ccc23)C(=O)O1`, 142 to 143 °C. `COc1ccc(-c2c(N[C@H](C)c3ccccc3)c(=O)c2=O)cc1` displayed a melting point of 159 to 160 °C. The same measure for `CCc1cc(NC(=O)c2nnnn2Cc2ccc(OC)cc2)c(O)c(C(C)=O)c1`: 140 to 142 °C; for `Cc1cc(Br)ccc1NC(=O)CC(=O)NCCO`: 139 to 142 °C. The compound `CCCc1c(OCCCCCCc2cc(OC)c(OC)cc2F)ccc(C(=O)O)c1O` registered a melting point of 127 to 130 °C. The same measure for `O=[N+]([O-])c1cccnc1Nc1ccc2c(c1)OCO2`: 146 to 148 °C; for `CC(C)NC(=O)C1(C(C)C)CCCC1C` (stereo not drawn): 90.5 to 91.5 °C. The same measure for `O=C(CCCCN1CCCCC1)NNC(=O)N1Cc2ccccc2Oc2ccc(Cl)cc21`: 126 to 128 °C; for `CC(C)N(CCCCOCC(=O)O)c1nc(-c2ccccc2)c(-c2ccccc2)nc1Cl`: 136 to 138 °C. `CSc1nc(C)nc(N)n1` had a melting point of 161 to 163 °C.

In turn, `N#Cc1ccc(C=Cc2ccc(-c3ccccc3)cc2)cc1` gave a melting point of 235 to 254 °C. `COc1ccc(-c2cc3ccccc3[nH]2)cc1NC(=S)Nc1cccc(CC(=O)O)c1` returned a melting point of 174 to 175 °C.

For `COc1ccc(C2=NN(c3cccc(C(=O)O)c3)C(=O)[C@H]3CC=CC[C@@H]23)cc1OC` (relative stereo), the melting point fell in the range of 185 to 186 °C. Consider `Cc1ccc(C)n1-c1cc(F)c(C2(O)CCSCC2)c(F)c1`, for which the melting point was 125 to 126 °C. The compound `Ic1cccc(OCCCCCCOc2c(I)cc(I)cc2I)c1` registered a melting point of 65 to 66 °C. The same measure for `Cc1c(Cl)nnc(Cl)c1C`: 80 to 82 °C. The same measure for `Nc1cc(F)ccc1C(=O)NCc1ccc(Br)cc1F`: 120 to 121 °C; for `CCCCCCCNC(=O)Nc1ccc(N(C)C)cc1C(=O)NC1CCN(C(c2ccccc2)c2ccccc2)CC1`: 204 to 206 °C. The same measure for `CCn1c(=O)c2c(nc(/C=C/c3cccc(OC(=O)c4ccccc4)c3)n2C)n(CC)c1=O`: 223 to 224 °C. The compound `COc1ccc(N2CCOCC2)c2sc(-c3nc(-c4ccccc4)c[nH]3)nc12` yielded a melting point of 226 to 233 °C. For `COc1cccc(NC(=S)Nc2cscc2C)c1N` the value was 148 to 153 °C; for `OCCc1c2ccccc2c(Br)c2ccccc12`, 180 to 182 °C; for `Cc1[nH]c2ccc(F)cc2c1C(=O)Nc1ccc(OCC(C)(C)C)c(C#N)c1`, 169 to 171 °C.

For the compound `O=C(CCCC(Cc1cccc2ccccc12)C(=O)O)c1ccccc1` (stereo not drawn), the melting point fell in the range of 134 to 136 °C. The compound `CC1C(c2ccc(Cl)cc2Cl)CC(=O)N1O` (stereo not drawn) yielded a melting point of 140 to 144 °C.

`C/C(=C\c1ccc(OCCN2CCOCC2)cc1)c1ccc2c(c1)SC(C)(C)S2` yielded a melting point of 90 to 91 °C. For `CCOc1ccc2[nH]cc(CC(C)(N)C(=O)OC)c2c1` (racemic) the value was 165 to 166 °C. For `Cc1c(CCl)ncn1C(c1ccccc1)(c1ccccc1)c1ccccc1` the value was 133 to 135 °C; for `COC(=O)C[C@H]1[C@H](C(=O)N(C)OC)C(=O)N1C(c1ccccc1)(c1ccccc1)c1ccccc1`, 168 to 169 °C; for `CCc1cn(C2CC(I)C(COC(c3ccccc3)(c3ccccc3)c3ccccc3)O2)c(=O)[nH]c1=O` (stereo not drawn), 93 to 98 °C. Consider `COc1ccc(N2C(=O)C(C)(C)N(c3ccc(Oc4ccccc4)cc3)C2=S)cc1`, for which the melting point is 144 °C. `O[C@@H](CNCCOc1ccc2oc(-c3noc(C(F)(F)F)n3)cc2c1)c1cccc(Cl)c1` showed a melting point of 108 to 111 °C. Take `COc1c(C2CCN(CCCCNC(=O)c3ccc(-c4ccc(C#N)s4)cc3)CC2)ccc2c1CCCC2`: the melting point was in the range of 182 to 184 °C. Compound `CN(N)c1nc2ccccc2o1` registered a melting point of 128 to 131 °C. For `Nc1ccc2nc(-c3ccc4c(c3)OCCO4)ncc2c1` the value was 179 to 182 °C; for `Cc1c(N2CCC(C)(NC(=O)OC(C)(C)C)C2)c(F)c(N)c2c(=O)c(C(=O)O)cn(C3CC3)c12` (stereo not drawn), 214 °C; for `CCOC(=O)C(=O)c1cc(OC)c(O)c([N+](=O)[O-])c1`, 165 to 167 °C. For `O=C(CC(O)(c1cc(Cl)cc(Cl)c1)C(F)(F)F)c1ccc(-n2ccnc2)cc1` (stereo not drawn) the value was 161 to 162 °C; for `O=C(O)C(OCc1ccc(-c2ccc(Cl)cc2)cc1)c1ccccc1` (stereo not drawn), 119 to 121 °C. Compound `O=C(O)/C=C/c1cn(-c2cc(C(F)(F)F)cc(C(F)(F)F)c2)nc1-c1cccc(Cl)c1` showed a melting point of 217 to 221 °C.

In turn, `COc1ccc(-c2c(NC(=O)Nc3ccc(F)cc3F)cnc3ccc(Cl)cc23)c(O)c1OC` returned a melting point of 218 to 220 °C. The compound `CCCSc1sc(C(=O)OCC)c2c1-c1nn(C)cc1CC2` showed a melting point of 90 to 91 °C. The same measure for `CCCc1c(OC(C(=O)OCC)c2ccc(OC)cc2)ccc(C(C)=O)c1O` (stereo not drawn): 87 to 89 °C. The same measure for `O=c1[nH]c2ccc(Cl)cc2n1-c1cccc(Cl)c1`: 112 °C; for `COC[C@@H]1CCCN1S(=O)(=O)c1ccc2c(c1)C(=O)C1=NCC(C)(C)CN12`: 161 to 164 °C; for `CNC(=O)c1ccc2[nH]cc(C3=CCN(C)CC3)c2c1`: 125 to 135 °C. The same measure for `CCOC(=O)c1ccc(CCc2coc(N)c2C#N)cc1`: 195 to 197 °C; for `O=C1CCC(c2ccc(Br)cc2)N1` (stereo not drawn): 142 °C; for `COc1cc(OC)c(/C=C/S(=O)(=O)Cc2ccc(OC)c(NC(C)C(=O)O)c2)c(OC)c1` (stereo not drawn): 176 to 180 °C. `COc1ccc2[nH]cc(CCCCN3CCN(c4ccc5oc(CO)cc5c4)CC3)c2c1` had a melting point of 159 °C.

In turn, `COC12CC(CCN3CCC(c4c[nH]c5ccccc45)CC3)CN(C)C1Cc1c[nH]c3cccc2c13` (stereo not drawn) returned a melting point of 153 to 156 °C. The same measure for `COc1cc(O)c(C)c(C(=O)O)c1Br`: 79 to 80 °C; for `CONS(=O)(=O)c1ccc(C)cc1`: 116 to 117 °C; for `Nc1ccc2ccc(Oc3ccccc3F)nc2n1`: 206 °C. For `COc1cccc(-c2ccc3c(c2)C2(CCCCC2)C(=NO)N3)c1` the value was 101 to 104 °C; for `CC[C@H](C)C(OCc1ccccc1F)[C@H]1[C@H]([N+](=O)[O-])[C@H](c2ccccc2)N[C@@H]1C(=O)NCCC(=O)O` (stereo partly drawn), 136 to 138 °C; for `Cc1ccc(NC(=O)C(=O)N2CCC(Cc3ccc(F)cc3)CC2)cc1`, 125 to 126 °C.

For the compound `COC(CNC1=Nc2ccc(Cl)cc2C(c2ccccc2)N1C)OC` (stereo not drawn), the melting point fell in the range of 104 to 105 °C. `COc1nc(N)nc2c1ncn2[C@H]1C[C@H](O)[C@@H](CO)O1` gave a melting point of 155 to 157 °C. As for `CC1(C)C(=O)N(c2ccc(C#N)c(C(F)(F)F)c2)C(=O)N1Cc1ccccc1Br`, the melting point was 56 to 58 °C. `CN(C)CCCOc1ccc(C(=O)NN)nc1` showed a melting point of 82 to 83 °C. The same measure for `COc1ccc(N2C(=O)N(c3cccc(C(N)=O)c3)c3nc(Nc4ccccc4)ncc3C2C)cc1` (stereo not drawn): 268 to 273 °C; for `Cc1c(CNCc2ccccc2)[nH]c(=O)c2c1ccc1nc(Nc3c(Cl)cccc3Cl)n(C)c12`: 231 to 234 °C; for `CCOC(=O)CNC(=O)Oc1c(C)n(CC)ccc1=O`: 102 to 103 °C.

For the compound `CCOC(=O)c1c(C(C)C)c2ccccn2c1-c1ccc(F)cc1`, the melting point lay within 51 to 52 °C. Compound `CS(=O)(=O)c1cc(C(=O)N=C(N)N)ccc1N1CCC(N)CC1` showed a melting point of 239 to 241 °C. For `O=C(Nc1cccc(F)n1)c1cc(-c2ccc(Cl)cc2)nc2ccccc12` the value was 200 to 201 °C.

Regarding `CCC(C)(Cc1c[nH]c2ccccc12)NC=O` (stereo not drawn), the melting point lay within 122 to 124 °C.

`CN(Cc1ccco1)C1=N/C(=C\c2c[nH]c3ncc(Cl)cc23)C(=O)N1`: the melting point stood at 315 °C. Compound `Cc1[nH]c2ccc(F)cc2c1CCCN1CCN(c2ccccc2)CC1` registered a melting point of 146 to 147 °C.

In turn, `O=C1C2=NCCCN2c2ccc(F)cc21` registered a melting point of 150 to 152 °C. Regarding `O=C(c1cccs1)c1cccn1N1C(=O)c2ccccc2C1=O`, the melting point lay within 165 to 166 °C.

`CCCCCCCCCCCCc1cc(NC(=O)Nc2c(C(C)C)cccc2C(C)C)on1` gave a melting point of 112 to 114 °C. For `CC(C)(C)OC(=O)N1CCN(c2cccc3ccc(Nc4ncccc4N)cc23)CC1` the value was 183 to 184 °C; for `c1ccc(OCCSCc2nnc(-c3ccc(OCCCN4CCOCC4)cc3)o2)cc1`, 65 °C; for `COc1ccc(C(=O)Sc2ccc(C(=O)O)cc2)cc1C1(C)CCCCC1`, 216 to 218 °C.

One may read the melting point as the temperature of the solid-liquid transition.

These data come from a melting point compilation (Tetko et al.; mined from patent text by program, amines drawn as free bases though some values may be those of a salt).
